Test results reported in paper PMC11376040, “A novel PDHK inhibitor restored cognitive dysfunction and limited neurodegeneration without affecting amyloid pathology in 5xFAD mouse, a model of Alzheimer’s disease” (Alzheimer's Research & Therapy, 2024).

Key:
Experiment in all cases: PDH-coupled PDHK assay (residual PDH activity, NADH absorbance at […] nm), […] ATP
Format in all cases: biochemical
[1] = target: T1, human PDHK1 (hPDHK1, pyruvate dehydrogenase kinase 1) (Homo sapiens, UniProt Q15118)
T1 construct: gene PDK1; recombinant, Flag-tag at the N-terminus; with PDH enzyme derived from porcine heart (PDH/PDHK complex)

[2] = target: T2, human PDHK2 (hPDHK2, pyruvate dehydrogenase kinase 2) (Homo sapiens, UniProt Q15119)
T2 construct: gene PDK2; recombinant, Flag-tag at the N-terminus; with PDH enzyme derived from porcine heart (PDH/PDHK complex)

[3] = target: T3, human PDHK3 (hPDHK3, pyruvate dehydrogenase kinase 3) (Homo sapiens, UniProt Q15120)
T3 construct: gene PDK3; recombinant, Flag-tag at the N-terminus; with PDH enzyme derived from porcine heart (PDH/PDHK complex)
T3 sequence (Q15120 whole entry): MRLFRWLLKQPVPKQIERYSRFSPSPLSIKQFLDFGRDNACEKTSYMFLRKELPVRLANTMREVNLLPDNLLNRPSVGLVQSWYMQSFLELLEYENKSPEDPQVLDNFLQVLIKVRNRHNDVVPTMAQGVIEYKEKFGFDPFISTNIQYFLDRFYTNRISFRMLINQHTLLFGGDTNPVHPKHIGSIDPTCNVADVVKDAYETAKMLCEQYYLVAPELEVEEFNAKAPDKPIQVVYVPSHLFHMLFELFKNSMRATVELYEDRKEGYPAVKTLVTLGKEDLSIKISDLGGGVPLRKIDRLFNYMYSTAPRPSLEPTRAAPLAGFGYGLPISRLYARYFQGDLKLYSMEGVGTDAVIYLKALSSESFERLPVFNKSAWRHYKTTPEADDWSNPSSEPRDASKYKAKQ

T1 sequence (Q15118 29-436): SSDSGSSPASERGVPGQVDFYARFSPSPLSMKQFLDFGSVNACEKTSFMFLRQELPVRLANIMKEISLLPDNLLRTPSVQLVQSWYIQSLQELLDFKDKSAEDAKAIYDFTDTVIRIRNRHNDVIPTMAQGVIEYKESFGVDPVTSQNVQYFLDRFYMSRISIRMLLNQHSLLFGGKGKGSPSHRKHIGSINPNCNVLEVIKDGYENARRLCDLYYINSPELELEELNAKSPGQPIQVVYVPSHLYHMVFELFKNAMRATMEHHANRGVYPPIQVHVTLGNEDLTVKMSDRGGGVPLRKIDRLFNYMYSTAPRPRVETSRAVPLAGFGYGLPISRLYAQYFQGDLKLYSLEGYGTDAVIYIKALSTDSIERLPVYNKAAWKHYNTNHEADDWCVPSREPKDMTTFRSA

C[C@H]1CN(C(=O)c2c(F)cc(C#N)cc2F)Cc2cnc([C@@](C)(O)C(F)(F)F)n21 [Compound A]
IC50 [1]: 8.17 ± 0.56 nM | IC50 [2]: 5.33 ± 0.12 nM | IC50 [3]: 50.5 ± 3.23 nM
